Experiment: Plasma metabolite profiling (GC-MS, LC-MS, SPE-LC-MS) of rats dosed once daily over 28 days; treatment ratios versus untreated control
Format: in vivo, rat
Conditions: male rats; for 5-Oxoproline, plasma metabolite ratio versus control / Alanine, plasma metabolite ratio versus control / Arginine (second line of the table), plasma metabolite ratio versus control / Arginine, plasma metabolite ratio versus control / Citrulline, plasma metabolite ratio versus control / Glutamine, plasma metabolite ratio versus control / Proline, plasma metabolite ratio versus control / Tyrosine, plasma metabolite ratio versus control: high dose; for Creatinine, ratio versus control: plasma, Table 12a
In short: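 Male and female rats (5/sex/group) dosed once daily for 28 days; fasted anaesthetized animals bled retro-orbitally (EDTA plasma) on days 7, 14, 28, stored −80 °C under N2. Polar and lipid fractions profiled by GC-MS (derivatized), LC-MS/MRM; steroids by online SPE-LC-MS. Pool-normalized data; treatment ratios vs sex-matched controls, Welch test p-values.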

Question: For CC1(C)C(C(Cl)Cl)C2(Cl)C(Cl)C(Cl)C1(Cl)C2(Cl)Cl (stereo not drawn) [Toxaphene], which “5-Oxoproline, plasma metabolite ratio versus control” value (day 7 (m7)) is on record?
Answer: The value was 0.98.

Question: What about the “Alanine, plasma metabolite ratio versus control” value (day 7 (m7)) of the same compound?
Answer: Its value is 0.82.

Question: What about the “Arginine (second line of the table), plasma metabolite ratio versus control” value (day 7 (m7)) of the same compound?
Answer: Its value is 0.87.

Question: And the “Arginine, plasma metabolite ratio versus control” value (day 7 (m7))?
Answer: The value was 0.96.

Question: And the “Citrulline, plasma metabolite ratio versus control” value (day 7 (m7))?
Answer: The value was 0.87.

Question: And the “Glutamine, plasma metabolite ratio versus control” value (day 7 (m7))?
Answer: The value was 0.89.

Question: What about the “Proline, plasma metabolite ratio versus control” value (day 7 (m7)) of the same compound?
Answer: Its value is 0.82.

Question: And the “Tyrosine, plasma metabolite ratio versus control” value (day 7 (m7))?
Answer: The value was 0.86.

Question: What about the “5-Oxoproline, plasma metabolite ratio versus control” value (day 14 (m14)) of the same compound?
Answer: The value was 0.87.

Question: What about the “Alanine, plasma metabolite ratio versus control” value (day 14 (m14)) of the same compound?
Answer: Its value is 0.87.

Question: And the “Arginine (second line of the table), plasma metabolite ratio versus control” value (day 14 (m14))?
Answer: Its value is 0.79.

Question: What about the “Arginine, plasma metabolite ratio versus control” value (day 14 (m14)) of the same compound?
Answer: The value was 0.78.

Question: What about the “Citrulline, plasma metabolite ratio versus control” value (day 14 (m14)) of the same compound?
Answer: The value was 1.07.

Question: And the “Glutamine, plasma metabolite ratio versus control” value (day 14 (m14))?
Answer: Its value is 0.77.

Question: And the “Proline, plasma metabolite ratio versus control” value (day 14 (m14))?
Answer: The value was 0.86.

Question: What about the “Tyrosine, plasma metabolite ratio versus control” value (day 14 (m14)) of the same compound?
Answer: Its value is 0.87.

Question: What about the “5-Oxoproline, plasma metabolite ratio versus control” value (day 28 (m28)) of the same compound?
Answer: The value was 0.81.

Question: And the “Alanine, plasma metabolite ratio versus control” value (day 28 (m28))?
Answer: The value was 0.83.

Question: And the “Arginine (second line of the table), plasma metabolite ratio versus control” value (day 28 (m28))?
Answer: Its value is 0.84.

Question: What about the “Arginine, plasma metabolite ratio versus control” value (day 28 (m28)) of the same compound?
Answer: The value was 0.77.

Question: What about the “Citrulline, plasma metabolite ratio versus control” value (day 28 (m28)) of the same compound?
Answer: Its value is 1.10.

Question: What about the “Glutamine, plasma metabolite ratio versus control” value (day 28 (m28)) of the same compound?
Answer: The value was 0.81.

Question: What about the “Proline, plasma metabolite ratio versus control” value (day 28 (m28)) of the same compound?
Answer: The value was 0.88.

Question: And the “Tyrosine, plasma metabolite ratio versus control” value (day 28 (m28))?
Answer: The value was 0.79.

Question: What about the “Creatinine, ratio versus control” value (day 7, high dose) of the same compound?
Answer: The value was 1.41.

Question: And the “Creatinine, ratio versus control” value (day 14, high dose)?
Answer: The value was 1.45.

Question: And the “Creatinine, ratio versus control” value (day 28, high dose)?
Answer: Its value is 1.37.

— US20150031572A1, “MEANS AND METHODS FOR ASSESSING NEURONAL TOXICITY” (priority 2012, published 2015)
